From the NIST ThermoML archive (doi:10.1021/je0496600)

Assay: mn = molality of the nth substance listed, in mol/kg
Conditions: 101.3 kPa, Liquid; for speed of sound: Sing-around technique in a fixed-path interferometer

O=C([O-])CCC(=O)[O-].[Na+].[Na+] [disodium succinate] + O
Conditions	mass density, 298.15 K [kg/m3]	mass density, 308.15 K [kg/m3]	mass density, 318.15 K [kg/m3]	speed of sound, 298.15 K [m/s]	speed of sound, 308.15 K [m/s]	speed of sound, 318.15 K [m/s]
m1 = 0.0188	999.052	996.011	992.179	1500.2	1523.2	1539.9
m1 = 0.0239	999.583	996.544	992.703	1501.1	1524.1	1540.6
m1 = 0.0336	1000.61	997.55	993.703	1502.7	1525.6	1542.1
m1 = 0.0373	1001	997.934	994.083	1503.4	1526.2	1542.7
m1 = 0.0452	1001.82	998.747	994.887	1504.9	1527.5	1544
m1 = 0.0489	1002.2	999.13	995.266	1505.4	1528	1544.6
m1 = 0.0546	1002.79	999.711	995.841	1506.3	1528.9	1545.3
m1 = 0.0593	1003.28	1000.19	996.315	1507.1	1529.7	1546.6
m1 = 0.068	1004.18	1001.08	997.197	1509	1531.7	1547.5
m1 = 0.0763	1005.05	1001.94	998.046	1510.5	1532.4	1548.5
m1 = 0.0864	1006.09	1002.96	999.064	1511.7	1533.9	1549.9
m1 = 0.0935	1006.82	1003.69	999.785	1512.8	1535.1	1551.2
m1 = 0.1221	1009.74	1006.56	1002.63	1517.5	1539.5	1555.2
m1 = 0.2589	1023.44	1020.07	1016.03	1539.8	1560.3	1575.1
m1 = 0.3292	1030.32	1026.85	1022.73	1551	1570.8	1585.2
m1 = 0.4019	1037.3	1033.75	1029.56	1562.4	1581.6	1595.8
m1 = 0.4364	1040.57	1036.98	1032.77	1567.8	1586.6	1600.7
m1 = 0.5252	1048.89	1045.2	1040.92	1582	1599.5	1612
m1 = 0.6535	1060.59	1056.74	1052.37	1601.2	1617.8	1629.2
m1 = 0.7422	1068.47	1064.55	1060.13	1615.1	1630.5	1641
m1 = 0.9099	1083.03	1078.94	1074.41	1639.8	1653.3	1662.7
m1 = 1.168	1104.44	1100.13	1095.45	1675.7	1687.5	1694.9
m1 = 1.43	1125.04	1120.37	1115.74	1711.2	1720.9	1726.2
m1 = 1.748	1148.68	1143.92	1138.95	1752.4	1759	1762.5

O=C[O-].[Na+] [sodium methanoate] + O
Conditions	mass density, 298.15 K [kg/m3]	mass density, 308.15 K [kg/m3]	mass density, 318.15 K [kg/m3]	speed of sound, 298.15 K [m/s]	speed of sound, 308.15 K [m/s]	speed of sound, 318.15 K [m/s]
m1 = 0.0263	998.164	995.129	991.308	1498.6	1521.7	1538.3
m1 = 0.0331	998.451	995.412	991.587	1499.1	1522.1	1538.8
m1 = 0.0437	998.896	995.851	992.021	1499.7	1522.7	1539.3
m1 = 0.0497	999.147	996.099	992.265	1500.1	1523.1	1539.6
m1 = 0.057	999.452	996.397	992.559	1500.6	1523.5	1540
m1 = 0.0682	999.921	996.863	993.016	1501.2	1524.2	1540.6
m1 = 0.0747	1000.2	997.131	993.282	1501.6	1524.5	1541
m1 = 0.0811	1000.46	997.398	993.545	1502.1	1524.9	1541.3
m1 = 0.0909	1000.88	997.799	993.945	1502.7	1525.5	1541.9
m1 = 0.0975	1001.15	998.074	994.215	1503	1525.9	1542.4
m1 = 0.1428	1003.03	999.916	996.044	1505.9	1528.5	1544.5
m1 = 0.2955	1009.33	1006.11	1002.18	1515.1	1536.9	1552.5
m1 = 0.4697	1016.34	1012.98	1008.95	1525.2	1546.2	1561.2
m1 = 0.6887	1024.99	1021.49	1017.38	1537.7	1557.7	1572.6
m1 = 0.8366	1030.69	1027.11	1022.93	1546	1565.3	1579
m1 = 0.9653	1035.61	1031.93	1027.66	1553.1	1571.8	1584.9
m1 = 1.139	1042.15	1038.38	1034.04	1562.4	1580.4	1593.2
m1 = 1.233	1045.63	1041.81	1037.43	1567.5	1585	1597.3
m1 = 1.496	1055.23	1051.27	1046.79	1581.2	1597.5	1609.2
m1 = 2.188	1079.46	1075.15	1070.43	1615.3	1628.8	1638.3
m1 = 2.783	1099.17	1094.61	1089.57	1642.8	1653.9	1661.4
m1 = 3.458	1120.32	1115.48	1110.11	1671.7	1680.4	1685.7
m1 = 4.201	1142.29	1137.22	1131.78	1701.1	1707.2	1709.9
m1 = 4.966	1163.55	1158.26	1152.83	1729.1	1732.7	1733.4
m1 = 6.561	1204.09	1198.4	1192.37	1779.4	1778.7	1775.7
m1 = 7.737	1230.99	1225.05	1218.87	1811.1	1807.6	1802
m1 = 8.551	1248.27	1242.15	1235.77	1830.5	1825.3	1818.3
m1 = 10.05	1277.62	1271.22	1264.6	1862.1	1854.1	1844.6
